Where a name gives a salt, the structure may show the parent alone. Read-outs that look alike come from different tables or passages of the source.
Assays:
[1] = cited from earlier work
[2] = Relative Molar Extinction Coefficients (absorbance of dye formed with N-ethylanilinopropanamine, POD and H2O2); assay type: physicochemical; conditions: pH 6.5 phosphate buffer, same molar concentration, coupled with N-ethylanilinopropanamine hydrochloride
Description: The relative absorbance of MBTH and sodium carboxy MBTH, an illustrative soluble hydrazone compound, was measured and compared. Since each compound was measured at the same molar concentration, the molar extinction was proportional to the […].
Each sample contained the following:
1 mL phosphate buffer, 0.035M, pH 6.5
10 μL R-MBTH solution, 10 mM, where R=H or COONa
100 μL N-ethylanilinopropanamine hydrochloride, 10 mM
10 μL POD solution, ~120 IU/mL
A 1-mL aliquot of each solution was transferred to a cuvette and diluted with an addition 2 mL of phosphate buffer solution.

[3] = Heat Stability on coated polyester fabric at 120° C.; assay type: physicochemical; conditions: for Density: 120° C., absorbance at 310 nm
Description: In order to evaluate the heat stability of sodium carboxy MBTH, 38 mg. of either MBTH.HCl or NaCMBTH was added to 1.2 mL water to dissolve. Then, 0.75 mL of this solution was added to 21 mg Hydrisel SX 660, a commercial surfactant and […] 0.1% ACP polymer (ISP Technologies), prepared in 70% isopropanol solution. Each solution was coated onto a 4-inch wide polyester fabric in a thin layer and dried at 40° C. for fifteen minutes. The coated fabric was sealed in an airtight foil bag and stored at 4° C.
Small samples (2 cm×5 cm) of each coated fabric were placed into a 120° C. oven and removed at appropriate intervals. The heat-stressed fabric samples were assayed spectrophotometrically.
The fabric samples were placed into a tared test tube and weighed. Ten mL of 20 mM phosphate buffer, pH 7.0, was added. The tubes were capped and agitated for ten minutes at room temperature. Absorbance at 310 nm was read for each sample and the values were compared against a standard curve.

[4] = Solubility Comparison in water; assay type: physicochemical; conditions: for Water added: to dissolve 100 mg completely
Description: (§1) The solubility of MBTH.HCl was compared with that of NaCMBTH. One hundred mg samples of each of MBTH.HCl (Aldrich) and NaCMBTH were placed into test tubes. Water was added in 50 μ-L aliquots until the sample completely dissolved.

[5] = Solubility Comparison in pH 7 buffer; assay type: physicochemical; conditions: for solubility: 0.1m phosphate buffer, aqueous buffer, pH 7 buffer (phosphate, 0.1M); for Water added: to dissolve 100 mg completely, pH 7 buffer (phosphate, 0.1M) instead of water
Description: as §1
An identical experiment was performed using pH 7 buffer (phosphate, 0.1M) instead of water.

SMILES | solubility in water compared with MBTH ([1]; U.S. Pat. No. 4,101,381) | Absorbance at 600 nm [2] [absorbance units] | Density ([3]; time 0) [mg/m^2] | Density ([3]; time 4 (hours)) [mg/m^2] | heat stability ([3]; after only two hours at 120° C.) | solubility [4] [mg/mL] | Water added [4] [µL] | solubility [5] [mg/mL] | Water added [5] [µL] | water solubility of the dye formed in the color reactions [1] | heat stability ([1]; dry form, 60° C., as noted in U.S. Pat. No. 4,101,381) | usable pH (autoxidative color reaction otherwise) ([1]; pH, absence of hydrogen peroxide) | Density ([3]; time 6 (hours)) [mg/m^2] | Density ([3]; time 23 (hours)) [mg/m^2] | heat stability ([3]; after 23 hours at 120° C.) | heat stability ([3]; after six hours at 120° C.)
Cn1c(=NNS(=O)(=O)O)sc2ccccc21 [3-methyl-2-sulfonyl-benzothiazolononhydrazone] | much poorer solubility in water than MBTH |  |  |  |  |  |  |  |  |  |  |  |  |  |  | 
Cn1c(=NN)sc2ccccc21 [MBTH.HCl, 3-methyl benzothiazolone-2-hydrazone HCL] |  | 0.1513 | 114.7 | 10.2 | effectively decomposed | 34 | 2900 | < 10 | > 9600 | relatively poor water solubility | insufficiently stable | below 7 |  |  |  | 
Cn1c(=NN)sc2cc(C(=O)O)ccc21 [NaCMBTH, 3-methylbenzothiazolone-2-hydrazone-6-carboxylic acid, sodium salt] |  | 0.2115 | 75.4 | 50.4 |  | 87 | 1150 | 174 | 575 |  |  |  | 51.2 | 50.3 | retains most of its activity | still viable

— US5710012A, “Salt of 6-carboxy-3-methylbenzothiazolone hydrazone hydrate in colorimetric determination of hydrogen peroxide” (ActiMed Laboratories, Inc., priority 1994, dated 1998)
